Our source for the IC50 values is ChEMBL document CHEMBL3621109, “Probing Mechanisms of CYP3A Time-Dependent Inhibition Using a Truncated Model System” (ACS Med Chem Lett, 2015).

Assay [1] in a line: Inhibition of CYP3A (unknown origin) using midazolam as substrate. The assay is classed as ADME, Homo sapiens.
Assay [2] in a line: Inhibition of CYP3A (unknown origin) using testosterone as substrate. The assay is classed as ADME, Homo sapiens.

As a reminder, the IC50 is the concentration needed to halve the response being measured. Low readings indicate inhibition by little substance, high ones a need for much substance. For `Cn1ncc(NC(=O)OCc2ccccc2)c1N1CC[C@H](N)CC(F)(F)C1`, the half-inhibitory concentration (IC50) was 7.7 µM in assay [1] and 2.5 µM in assay [2].

Consider `Cn1ncc(NC(=O)c2ccccc2)c1N1CCCCC(F)(F)C1`, for which the IC50 in assay [1] was 0.84 µM; in assay [2], 1.7 µM.

Regarding `Cn1ncc(NC(=O)c2ccccc2)c1N1CCC(O)CC(F)(F)C1` (racemic), the IC50 in assay [1] is > 10 µM.

For the compound `Cn1ncc(NC(=O)c2ccccc2)c1N1CC[C@H](N)CC(F)(F)C1`, the values for the half-inhibitory concentration (IC50) in assay [1] and in assay [2] were 5 µM and 4.3 µM, respectively.
